The values that follow come from publication PMC2935964, “Selective delivery of 2-hydroxy APA to Trypanosoma brucei using the melamine motif” (Bioorganic & Medicinal Chemistry Letters, 2010).

Read-outs that look alike come from different tables or passages of the source.

The target of one data set is T. brucei ODC (Trypanosoma brucei brucei, UniProt P07805). Put plainly: Inhibition of T. brucei ODC (previously described assay). It is filed as biochemical.
The subject of data set [1] is T. brucei brucei wild type. The data set is described as follows: In vitro activity against T. brucei brucei wild type (P2 transporter proficient). The class given is cell-based, Trypanosoma brucei brucei. Particulars: for EC50: Trypanosoma brucei, read-out: T. brucei brucei EC50 Wild type. The procedure:
(§1) Compounds were tested against two T. brucei lines in vitro. The T. brucei brucei wild type that is proficient in the P2 transporter and a TbAT1 knockout line lacking the P2 transporter. This TbAT1 knockout line has been described previously.[27]

The next data set concerns rat liver ODC. More on the design: method as in PMID 1573631. Particulars: previously reported; read-out: inhibition of rat liver ODC; cited from earlier work.
Data set [2] has as its system T. brucei brucei TbAT1 KO. Put plainly: In vitro activity against TbAT1 knockout line lacking the P2 transporter. The class given is cell-based, Trypanosoma brucei brucei. The settings on record: for EC50: Trypanosoma brucei, read-out: T. brucei brucei EC50 TbAT1 KO; for Resistance factor (EC50 KO/EC50 w.t.): ratio TbAT1 KO vs wild type. As for the experimental part:
as §1

The mark [3] stands for this setting: wild type, P2 proficient, NA = no activity at 100 μM.

Chain of T. brucei ODC (P07805 whole entry): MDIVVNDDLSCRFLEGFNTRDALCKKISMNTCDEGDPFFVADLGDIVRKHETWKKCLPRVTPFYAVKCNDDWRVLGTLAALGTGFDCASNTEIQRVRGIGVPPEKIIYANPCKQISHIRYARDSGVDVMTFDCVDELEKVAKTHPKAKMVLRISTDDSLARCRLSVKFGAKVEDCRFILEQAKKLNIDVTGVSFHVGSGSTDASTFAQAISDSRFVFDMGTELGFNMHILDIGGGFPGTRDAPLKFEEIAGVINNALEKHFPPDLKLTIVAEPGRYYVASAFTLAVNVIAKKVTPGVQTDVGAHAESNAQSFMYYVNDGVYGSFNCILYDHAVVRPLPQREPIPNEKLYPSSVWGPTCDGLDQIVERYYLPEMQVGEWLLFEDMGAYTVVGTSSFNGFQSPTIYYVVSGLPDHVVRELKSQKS

In general, EC50 refers to the concentration that produces a half-maximal response. Consider `Cl.NCCCON` [Compound 3, 3-(aminooxy)propanamine, reference compound], for which the IC50 was 0.022 ± 0.007 µM on T. brucei ODC and 0.035 µM in the data set on rat liver ODC. Moreover, the EC50 in data set [1] is more than 100 µM. Besides, in data set [1] (setting [3]), the “T. brucei brucei EC50 Wild type” value was “inactive”.

Consider `NCC(O)CON` (centres unmarked) [Compound 7, 2-hydroxy APA], for which the results for the IC50 at T. brucei ODC and with rat liver ODC were 0.048 ± 0.009 µM and 0.039 µM, respectively. In addition, in data set [1], the EC50 is more than 100 µM.

Turning to `CC(C)(C)OC(=O)NCC(CONC(=O)OC(C)(C)C)OC(=O)CCNc1nc(N)nc(N)n1` (centres unmarked) [Compound 10b], the EC50 in data set [1] was 77 µM; in data set [2] it was 40 µM. Moreover, the “Resistance factor (EC50 KO/EC50 w.t.)” value in data set [2] is given as 0.5.

What is called melting point is the temperature of the solid-liquid transition. Consider `Cl.Cl.NCC(CON)OC(=O)CNc1nc(N)nc(N)n1` (centres unmarked) [Compound 11a], for which the melting point lay in the range of 150 to 170 °C. In addition, in data set [1] (setting [3]), the EC50 was more than 100 µM.

On to `Cl.Cl.NCC(CON)OC(=O)CCNc1nc(N)nc(N)n1` (centres unmarked) [Compound 11b], for which the melting point was 150 to 170 °C. Moreover, the concentration for a half-maximal effect (EC50) in data set [1] (setting [3]) is more than 100 µM.

Take `CC(Nc1nc(N)nc(N)n1)C(=O)OC(CN)CON.Cl.Cl` (centres unmarked) [Compound 11c]: the melting point is 160 to 180 °C. The concentration giving a half-maximal response (EC50) in data set [1] (setting [3]) is 29 µM. Besides, the “Resistance factor (EC50 KO/EC50 w.t.)” value in data set [2] was more than 3.

Turning to `Cl.Cl.NCC(CON)OC(=O)CCCNc1nc(N)nc(N)n1` (centres unmarked) [Compound 11d], the EC50 in data set [1] (setting [3]) is 113 µM. In data set [2], the EC50 came to 288 µM and the “Resistance factor (EC50 KO/EC50 w.t.)” value was determined as 2.5.
